Laboratory results from article PMC8786778 (Pharmacological reports : PR, 2021).
Read-outs that look alike come from different tables or passages of the source.

Experiments:
Assay type in all cases: cell-based
COLO 205 = test: Differential nuclear staining (DNS) cytotoxicity assay; settings: Homo sapiens, COLO 205, 48 h
Excerpt: (§1) All cell lines were obtained commercially from ATCC (American Type Culture Collection). Several cancer and non-cancerous cell lines were used for this analysis. […] Solid tumor cancer cell lines included MDA-MB-231 (Adenocarcinoma; HTB-26) cultured in DMEM medium, HT-29 (Colorectal Adenocarcinoma; HTB-38) cultured in McCoy’s 5A medium, and COLO 205 (Colorectal Adenocarcinoma; CCL-222) cultured in RPMI-1640 medium. Non-cancerous cell lines included Hs27 (No disease, foreskin; CRL-1634) cultured in DMEM medium and MCF-10A (Fibrocystic Disease; CRL-10317) cultured in DMEM/F12 medium supplemented with 20 ng/ml epidermal growth factor, 0.5 μg/ml hydrocortisone, and 10 μg/ml insulin. Additionally, all media used for cell culture was supplemented with 10% heat-inactivated fetal bovine serum (FBS), and a mixture of 25 μg/ml amphotericin B, 1,000 U/ml penicillin, and 1,000 μg/ml streptomycin. […] All cell lines were grown in an incubator supplemented with 5% CO2 at 37 °C.
(§2) Cytotoxic activity was evaluated through the DNS assay [17, 18]. This assay involves labeling live and dead cells with two nucleic acid intercalators, Hoechst 33342 and propidium iodide (PI). Hoechst 33342 stains all cells (healthy and dead), but PI stains only dead or dying cells with a compromised cell membrane [17, 18]. For the experiment, each cell line was plated at a density of 10,000 cells per well (96-well plate) in 100 μl media and placed in the incubator overnight under cell culture conditions. Cells were then treated with varying concentrations of the compound of interest for 48 h. Two hours before incubation elapsed, 10 μl of a dye mixture consisting of phosphate-buffered saline (PBS), Hoechst 33342 (1 μg/ml final; Invitrogen, H1399), and PI (1 μg/ml final; Invitrogen, P1304MP) was added to each well. […] For quantitative analysis, images were segmented through the IN Cell Analyzer Workstation 3.2 software (GE Healthcare). […] Each compound concentration and each control were assessed in triplicate. […] SCI was calculated using the following equation: CC50 of the non-cancer cell line/CC50 of the cancer cell line [20].

Jurkat = test: as above; settings: Homo sapiens, Jurkat, 48 h
Excerpt: (§3) All cell lines were obtained commercially from ATCC (American Type Culture Collection). Several cancer and non-cancerous cell lines were used for this analysis. […] Solid tumor cancer cell lines included MDA-MB-231 (Adenocarcinoma; HTB-26) cultured in DMEM medium, HT-29 (Colorectal Adenocarcinoma; HTB-38) cultured in McCoy’s 5A medium, and COLO 205 (Colorectal Adenocarcinoma; CCL-222) cultured in RPMI-1640 medium. Non-cancerous cell lines included Hs27 (No disease, foreskin; CRL-1634) cultured in DMEM medium and MCF-10A (Fibrocystic Disease; CRL-10317) cultured in DMEM/F12 medium supplemented with 20 ng/ml epidermal growth factor, 0.5 μg/ml hydrocortisone, and 10 μg/ml insulin. Additionally, all media used for cell culture was supplemented with 10% heat-inactivated fetal bovine serum (FBS), and a mixture of 25 μg/ml amphotericin B, 1,000 U/ml penicillin, and 1,000 μg/ml streptomycin. The HL-60 cell line was supplemented with 20% FBS and the same antibiotic mixture described. All cell lines were grown in an incubator supplemented with 5% CO2 at 37 °C.
(§4) Cytotoxic activity was evaluated through the DNS assay [17, 18]. This assay involves labeling live and dead cells with two nucleic acid intercalators, Hoechst 33342 and propidium iodide (PI). Hoechst 33342 stains all cells (healthy and dead), but PI stains only dead or dying cells with a compromised cell membrane [17, 18]. For the experiment, each cell line was plated at a density of 10,000 cells per well (96-well plate) in 100 μl media and placed in the incubator overnight under cell culture conditions. Cells were then treated with varying concentrations of the compound of interest for 48 h. […] For quantitative analysis, images were segmented through the IN Cell Analyzer Workstation 3.2 software (GE Healthcare). […] Each compound concentration and each control were assessed in triplicate. […] SCI was calculated using the following equation: CC50 of the non-cancer cell line/CC50 of the cancer cell line [20].

K562 = test: as above; settings: Homo sapiens, K562, 48 h
Excerpt: as §3, §4

HT-29 = test: as above; settings: Homo sapiens, HT-29, 48 h
Excerpt: as §1, §2

CCRF-CEM = test: as above; settings: Homo sapiens, CCRF-CEM, 48 h
Excerpt: as §1, §2

Ramos = test: as above; settings: Homo sapiens, Ramos, 48 h
Excerpt: as §1, §2

KCL22 = test: as above; settings: Homo sapiens
Excerpt: as §3, §4

[1] = system: nine tumorigenic cell lines; test: DNS assay, summary over the cancer cell line panel; settings: for CC50: 48 h, read-out: average CC50 towards the nine tumorigenic cell lines
Description: Several cancer and non-cancerous cell lines were used for this analysis. […] Additionally, all media used for cell culture was supplemented with 10% heat-inactivated fetal bovine serum (FBS), and a mixture of 25 μg/ml amphotericin B, 1,000 U/ml penicillin, and 1,000 μg/ml streptomycin. […] All cell lines were grown in an incubator supplemented with 5% CO2 at 37 °C.
Cytotoxic activity was evaluated through the DNS assay [17, 18]. […] For the experiment, each cell line was plated at a density of 10,000 cells per well (96-well plate) in 100 μl media and placed in the incubator overnight under cell culture conditions. Cells were then treated with varying concentrations of the compound of interest for 48 h. […] The IN Cell 2000 analyzer, a high-content analyzer (HCA), was used to image the plates (GE Healthcare). For quantitative analysis, images were segmented through the IN Cell Analyzer Workstation 3.2 software (GE Healthcare). […] Each compound concentration and each control were assessed in triplicate.

HL-60 = test: Differential nuclear staining (DNS) cytotoxicity assay; settings: for CC50: Homo sapiens
Description: (§5) All cell lines were obtained commercially from ATCC (American Type Culture Collection). Several cancer and non-cancerous cell lines were used for this analysis. […] Non-cancerous cell lines included Hs27 (No disease, foreskin; CRL-1634) cultured in DMEM medium and MCF-10A (Fibrocystic Disease; CRL-10317) cultured in DMEM/F12 medium supplemented with 20 ng/ml epidermal growth factor, 0.5 μg/ml hydrocortisone, and 10 μg/ml insulin. Additionally, all media used for cell culture was supplemented with 10% heat-inactivated fetal bovine serum (FBS), and a mixture of 25 μg/ml amphotericin B, 1,000 U/ml penicillin, and 1,000 μg/ml streptomycin. The HL-60 cell line was supplemented with 20% FBS and the same antibiotic mixture described. All cell lines were grown in an incubator supplemented with 5% CO2 at 37 °C.
(§6) Cytotoxic activity was evaluated through the DNS assay [17, 18]. This assay involves labeling live and dead cells with two nucleic acid intercalators, Hoechst 33342 and propidium iodide (PI). Hoechst 33342 stains all cells (healthy and dead), but PI stains only dead or dying cells with a compromised cell membrane [17, 18]. For the experiment, each cell line was plated at a density of 10,000 cells per well (96-well plate) in 100 μl media and placed in the incubator overnight under cell culture conditions. Cells were then treated with varying concentrations of the compound of interest for 48 h. Two hours before incubation elapsed, 10 μl of a dye mixture consisting of phosphate-buffered saline (PBS), Hoechst 33342 (1 μg/ml final; Invitrogen, H1399), and PI (1 μg/ml final; Invitrogen, P1304MP) was added to each well. The IN Cell 2000 analyzer, a high-content analyzer (HCA), was used to image the plates (GE Healthcare). For quantitative analysis, images were segmented through the IN Cell Analyzer Workstation 3.2 software (GE Healthcare). […] Each compound concentration and each control were assessed in triplicate.
(§7) For the experiments conducted, the concentrations used correspond to either CC50 or CC50 × 2 in the specified cell line. […] Therefore, we used a CC10 and a CC30 concentration.

MDA-MB-231 = test: as above; settings: Homo sapiens, MDA-MB-231, 48 h
Excerpt: as §1, §2

HMOX-1 in HL-60 cells = test: RT-qPCR gene expression; settings: HL-60, 6 h, P3 […], P4 4 μM, P5 4 μM, normalised to ACTB, 2^−ΔΔCt, two independent experiments
Description: (§8) After the incubation period elapsed, cell pellets were washed by centrifuging at 262g for 5 min and re-suspending in 1 ml of PBS. Dry cell pellets were used for RNA extraction. RNA was extracted immediately according to the manufacturer’s instructions of the RNeasy Mini Kit (Qiagen; 74104). A QIAshredder was used to lyse the cells, and the optional DNase I digestion was also accomplished. Three biological replicates were used for each treatment. RNA was stored at −80 °C overnight, then the RNA was used to synthesize cDNA using the RT^2 HT First Strand Kit (Qiagen; 330,411). The amount of RNA used per sample was 500 ng, which was quantified using a NanoDrop ND-1000 system (ThermoFisher Scientific). RNA was diluted using RNase-free water to obtain the desired concentration (500 ng) in 9 μl. As per the manufacturer’s protocol, we incubated 9 μl of the sample with 6 μl GE2 (gDNA elimination buffer) for 5 min at 37 °C, then we added 6 μl BC4 Reverse Transcriptase Mix and incubated for 15 min at 42 °C, 5 min at 95 °C and, finally, a 4 °C hold. […] For data analysis, gene expression levels were normalized to the housekeeping gene (ACTB) and quantified using the comparative Ct method (2^−ΔΔCt). Fold change differences were calculated by comparing gene expression levels of compound treatment versus vehicle control.

[2] = Differential nuclear staining (DNS) cytotoxicity assay; settings: human, Hs27 cells (non-cancerous) versus COLO 205 cells (cancer); CC50 Hs27 / CC50 COLO 205; read-out: SCI (Selective Cytotoxicity Index)
Excerpt: as §1, §2

HL-60 cells [3] = test: Cell cycle analysis with NIM-DAPI; settings: HL-60, 72 h
Description: Controls included were a vehicle (0.1% v/v DMSO), positive (1 mM H2O2), and negative (untreated cells) control. Subsequently, cells were collected in flow cytometry tubes and centrifuged at 262g for 5 min. Then, the supernatant was removed, and the cell pellet was re-suspended in a mixture of 100 μl of PBS and 200 μl of NIM-DAPI. Samples were immediately read and analyzed through flow cytometry (Gallios & Kaluza Analysis Software; Beckman Coulter). Approximately 10,000 events were acquired per sample. Data are represented as plots that display peaks (Fig. 6e) which represent fragments of DNA (Sub-G0/1 phase), cells before they replicate DNA (G0/1 phase), active replication of DNA (S phase), and post-replicative stage while entering mitosis (G2M phase) [23].

[4] = Differential nuclear staining (DNS) cytotoxicity assay; settings: human, Hs27 cells (non-cancerous) versus Jurkat cells (cancer); CC50 Hs27 / CC50 Jurkat; read-out: SCI (Selective Cytotoxicity Index)
Excerpt: as §3, §4

HL-60 cells [5] = test: Mitochondrial membrane potential (ΔΨm) polychromatic assay (JC-1); settings: HL-60, 5 h, 4 μM
Description: The cationic JC-1 (5′,6,6′-tetrachloro-1,1′,3,3′-tetraethylben zimidazolylcarbocyanine iodide) dye can be used to monitor mitochondrial membrane potential (Invitrogen; M34152). A red signal (JC-1 aggregates) indicates an intact polarized mitochondrial membrane, while a green signal (JC-1 monomers) indicates a depolarized mitochondrial membrane. […] A vehicle, positive, and negative control (as previously described) were included as well. Following incubation, cells were collected and stained per the manufacturer’s instructions with a final concentration of 2 μM JC-1 dye. Samples were then examined utilizing flow cytometry (Gallios; Beckman Coulter). Analysis of the subsequent data was completed using Kaluza software (Kaluza Analysis Software; Beckman Coulter).

[6] = system: caspase-3 activation in HL-60 cells; test: Caspase-3 assay (NucView 488); settings: HL-60, 8 h; concentration not given
ATF3 in HL-60 cells = test: RT-qPCR gene expression; settings: HL-60, 6 h, P3 […], P4 4 μM, P5 4 μM, normalised to ACTB, 2^−ΔΔCt
Description: as §8

[7] = Differential nuclear staining (DNS) cytotoxicity assay; settings: human, Hs27 cells (non-cancerous) versus K562 cells (cancer); CC50 Hs27 / CC50 K562; read-out: SCI (Selective Cytotoxicity Index)
Excerpt: as §3, §4

[8] = as above; settings: human, Hs27 cells (non-cancerous) versus HT-29 cells (cancer); CC50 Hs27 / CC50 HT-29; read-out: SCI (Selective Cytotoxicity Index)
Excerpt: as §1, §2

[9] = as above; settings: human, Hs27 cells (non-cancerous) versus CCRF-CEM cells (cancer); CC50 Hs27 / CC50 CCRF-CEM; read-out: SCI (Selective Cytotoxicity Index)
Excerpt: as §1, §2

[10] = as above; settings: human, Hs27 cells (non-cancerous) versus Ramos cells (cancer); CC50 Hs27 / CC50 Ramos; read-out: SCI (Selective Cytotoxicity Index)
Excerpt: as §1, §2

MYC in HL-60 cells = test: RT-qPCR gene expression; settings: HL-60, 6 h, P3 […], P4 4 μM, P5 4 μM, normalised to ACTB, 2^−ΔΔCt
Description: as §8

[11] = DNS assay, summary over the non-cancerous cell lines; settings: human, Hs27 and MCF-10A non-cancerous cells, mean of two non-cancerous cell lines, read-out: average CC50 towards Hs27 and MCF-10A
Excerpt: (§9) All cell lines were obtained commercially from ATCC (American Type Culture Collection). Several cancer and non-cancerous cell lines were used for this analysis. […] Solid tumor cancer cell lines included MDA-MB-231 (Adenocarcinoma; HTB-26) cultured in DMEM medium, HT-29 (Colorectal Adenocarcinoma; HTB-38) cultured in McCoy’s 5A medium, and COLO 205 (Colorectal Adenocarcinoma; CCL-222) cultured in RPMI-1640 medium. Non-cancerous cell lines included Hs27 (No disease, foreskin; CRL-1634) cultured in DMEM medium and MCF-10A (Fibrocystic Disease; CRL-10317) cultured in DMEM/F12 medium supplemented with 20 ng/ml epidermal growth factor, 0.5 μg/ml hydrocortisone, and 10 μg/ml insulin. Additionally, all media used for cell culture was supplemented with 10% heat-inactivated fetal bovine serum (FBS), and a mixture of 25 μg/ml amphotericin B, 1,000 U/ml penicillin, and 1,000 μg/ml streptomycin. The HL-60 cell line was supplemented with 20% FBS and the same antibiotic mixture described. […]
(§10) Cytotoxic activity was evaluated through the DNS assay [17, 18]. […] For quantitative analysis, images were segmented through the IN Cell Analyzer Workstation 3.2 software (GE Healthcare). […] Each compound concentration and each control were assessed in triplicate. […] SCI was calculated using the following equation: CC50 of the non-cancer cell line/CC50 of the cancer cell line [20].

[12] = Differential nuclear staining (DNS) cytotoxicity assay; settings: human, MCF-10A non-cancerous cells
Excerpt: as §3
Cytotoxic activity was evaluated through the DNS assay [17, 18]. […] For quantitative analysis, images were segmented through the IN Cell Analyzer Workstation 3.2 software (GE Healthcare). […] Each compound concentration and each control were assessed in triplicate.

[13] = as above; settings: human, Hs27 non-cancerous cells
Excerpt: as §9, §10

HL-60 cells [14] = test: Reactive oxygen species (ROS) assay (carboxy-H2DCFDA); settings: HL-60, 18 h
Description: Reactive oxygen species (ROS) generation can be quantified using the 6-carboxy-2',7'-dichlorodihydrofluorescein diacetate (carboxy-H2DCFDA) dye (Invitrogen; Molecular Probes, C400) [19, 22]. This non-fluorescent dye shifts to a green fluorescent form as oxidation, induced by ROS, occurs within the cell. Therefore, a green fluorescent signal, corresponding to the oxidized form of carboxy-H2DCFDA, indicates ROS generation. Cells (HL-60) were plated overnight at a density of 100,000 cells in 1 ml. […] Samples were collected, centrifuged at 262g for 5 min, and re-suspended in 1 ml PBS to remove the complete medium. Then, cells were loaded with a final concentration of 10 μM carboxy-H2DCFDA dye for 45 min at 37 °C. Following incubation with dye, cells were centrifuged at 262g for 5 min and re-suspended in 500 μl PBS. Then, samples were processed using flow cytometry (Gallios; Beckman Coulter). Data analysis was completed with the Kaluza software (Kaluza Analysis Software; Beckman Coulter). Controls used were the same as mentioned before (0.1% v/v DMSO, 1 mM H2O2, and untreated cells) with an additional unstained (not loaded with dye) control to observe the normal population of cells.

[15] = Differential nuclear staining (DNS) cytotoxicity assay; settings: human, Hs27 cells (non-cancerous) versus KCL22 cells (cancer); CC50 Hs27 / CC50 KCL22; read-out: SCI (Selective Cytotoxicity Index)
Excerpt: as §3, §4

PMAIP1 in HL-60 cells = test: RT-qPCR gene expression; settings: HL-60, 6 h, P3 […], P4 4 μM, P5 4 μM, normalised to ACTB, 2^−ΔΔCt
Description: as §8

CHAC1 in HL-60 cells = test: RT-qPCR gene expression; settings: HL-60, 6 h, P3 […], P4 4 μM, P5 4 μM, normalised to ACTB, 2^−ΔΔCt
Description: as §8

HL-60 cells [16] = test: Annexin V-FITC assay (phosphatidylserine externalization); settings: HL-60, 24 h, CC50 concentration (P3 […], P4 2 μM, P5 2 μM)
Description: The annexin V-FITC assay was used to evaluate the induction of apoptosis (Beckman Coulter; IM3546) [21]. HL-60 cells were seeded at a density of 100,000 cells in 1 ml complete medium. Cells were treated with the three compounds of interest for 24 h. […] Controls used were a vehicle control (0.1% v/v DMSO), an apoptosis-inducing positive control (1 mM H2O2), and an untreated cell negative control. Following treatment, cells were collected and stained with both PI and annexin V-FITC according to the manufacturer’s instructions (Beckman Coulter; IM3546). Samples were immediately read by flow cytometry (Gallios; Beckman Coulter). Data analysis was accomplished with Kaluza software (Kaluza Analysis Software; Beckman Coulter).

[17] = Differential nuclear staining (DNS) cytotoxicity assay; settings: human, Hs27 cells (non-cancerous) versus HL-60 cells (cancer); CC50 Hs27 / CC50 HL-60; read-out: SCI (Selective Cytotoxicity Index)
Description: as §5, §6, §7

[18] = as above; settings: human; CC50 MCF-10A / CC50 MDA-MB-231; read-out: SCI (Selective Cytotoxicity Index)
Excerpt: as §1, §2

[19] = HL-60, concentration used for 72 h cell cycle analysis

Q: With N[C@@H](Cc1ccc(N(CCCl)CCCl)cc1)C(=O)O [Melphalan, reference compound] as the compound, how does the CC50 (COLO 205) read?
A: 20400 nM

Q: And the CC50 (Jurkat)?
A: 1910 nM

Q: What about the CC50 (K562) of the same compound?
A: 19600 nM

Q: What about the CC50 (HT-29) of the same compound?
A: 21100 nM

Q: And the CC50 (CCRF-CEM)?
A: 3170 nM

Q: And the CC50 (Ramos)?
A: 2050 nM

Q: And the CC50 (KCL22; KCL-22, 48 h)?
A: 81300 nM

Q: And the CC50 [1]?
A: 17800 nM

Q: What about the CC50 (HL-60; HL-60, 48 h) of the same compound?
A: 1570 nM

Q: And the CC50 (MDA-MB-231)?
A: 9230 nM

Q: What does the source list for O=C1/C(=C/c2ccc(O)c(CN3CCOCC3)c2)CNC/C1=C\c1ccc(O)c(CN2CCOCC2)c1 [P5]?
A: fold-change difference of HMOX-1 expression versus vehicle (HMOX-1 in HL-60 cells): 2464.89; selectivity ratio at 48 h [2]: 6.87; CC50 (COLO 205; DNS assay, read-out: CC50): 800 nM; increase in the percentage of cells arrested at the G2/M phase versus DMSO (HL-60 cells [3]; 0.4 μM): ~ 9%; change in the percentage of cells in the S phase compared to DMSO (HL-60 cells [3]; printed as double the CC50 concentration): significant decrease; selectivity ratio at 48 h [4]: 6.05; CC50 (Jurkat; DNS assay, read-out: CC50): 910 nM; increase in the cell population with a depolarized mitochondrial membrane in comparison to DMSO (HL-60 cells [5]): ~ 10%; cells with active caspase-3, as compared to DMSO [6]: ~ 49%; fold-change difference of ATF3 expression versus vehicle (ATF3 in HL-60 cells): 204.56; selectivity ratio at 48 h [7]: 1.29; CC50 (K562; DNS assay, read-out: CC50): 4250 nM; selectivity ratio at 48 h [8]: 2.85; CC50 (HT-29; DNS assay, read-out: CC50): 1930 nM; CC50 (CCRF-CEM; DNS assay, read-out: CC50): 650 nM; selectivity ratio at 48 h [9]: 8.42; CC50 (Ramos; DNS assay, read-out: CC50): 1060 nM; selectivity ratio at 48 h [10]: 5.19; fold-change difference of MYC expression versus vehicle (MYC in HL-60 cells): −4.15; CC50 at 48 h [11]: 3840 nM; CC50 at 48 h [12]: 2180 nM; CC50 at 48 h [13]: 5500 nM; increase of cells positive for ROS production compared to DMSO (HL-60 cells [14]; P3 […], P4 2 μM, P5 2 μM): ~ 38%; increase of cells positive for ROS production compared to DMSO (HL-60 cells [14]; twice the concentration (P3 […], P4 4 μM, P5 4 μM)): ~ 65%; selectivity ratio at 48 h [15]: 3.49; CC50 (KCL22; KCL-22, KCL22, 48 h, DNS assay, read-out: CC50): 1570 nM; fold-change difference of PMAIP1 expression versus vehicle (PMAIP1 in HL-60 cells): 79.50; fold-change difference of CHAC1 expression versus vehicle (CHAC1 in HL-60 cells): 106.96; increase of Annexin V-FITC-positive cells in comparison to DMSO (HL-60 cells [16]): ~ 30%; CC50 ([1]; DNS assay, mean over nine cell lines): 1520 nM; times more potent than melphalan ([1]; ratio of average CC50 values, nine tumorigenic cell lines): 11.7; selectivity ratio at 48 h [17]: 7.47; CC10 (HL-60; [19]): 400 nM; CC30 (HL-60; [19]): 1200 nM; CC50 (HL-60; HL-60, 48 h, DNS assay, read-out: CC50): 740 nM; CC50 (HL-60; HL-60, value used to set treatment concentrations, read-out: CC50 in HL-60 (concentrations for cell death induction)): 2000 nM; selectivity ratio at 48 h [18]: 1.26; CC50 (MDA-MB-231; DNS assay, read-out: CC50): 1740 nM
